The values that follow come from PubChem BioAssay AID1919010 (Molecular Pharmacology Branch, DTP, NCI, 2023).

Structures are written as SMILES. pIC50: −log10 of the molar value. Several values for one entry are separate records, joined by “and”; a condition that tells them apart may be missing. Equal entries are not always repeated.

The test has as its system Hs578T complex spheroid growth, percent test/control. Briefly: Anticancer human tumor Hs578T cell line growth inhibition [AhR].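 As to all read-outs here: luminescent viability signal as a proxy for spheroid growth; spheroids exposed to agents for one week after three days of growth.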 The settings on record: for viability, T/C: stronger effect = lower value. The text has this:
Multicellular complex tumor spheroid response to aryl hydrocarbon receptor antagonists in combination with a variety of drugs and investigational agents in selected tumor cell lines
The current study was undertaken to assess response to aryl hydrocarbon receptor antagonists in combination with standard-of-care drugs and investigational agents in solid tumor complex spheroid models. Complex spheroids include a stromal component modeled by human endothelial cells (HUVEC) and fibroblasts modeled by human mesenchymal stem cells (MSCs). The concentration ranges selected for each drug and investigational agent were based upon clinically achievable concentrations if the clinical Cmax of the agent was known.
Compounds. The drugs and investigational agents: BAY 2416964 (NSC825713), GNF351 (NSC835774), CH-223191 (NSC835775), CPI-455 (NSC825282), aza-TdCyd (NSC777586), decitabine (NSC127716), belinostat (NSC758774), entinostat (NSC756642), pevonedistat (NSC761192), tazemetostat (NSC777109), talazoparib (NSC765396), olaparib (NSC753686), selinexor (NSC780203), nedisertib (M3814, NSC802822), bortezomib (NSC756655), venetoclax (NSC766270), doxorubicin (NSC123127), elimusertib (BAY189344, NSC800525), ceralasertib (AZD6738, NSC777638), TAK-243 (NSC785004), alisertib (NSC759677), etoposide (NSC141540), topotecan (NSC609699), eribulin (NSC707389), gemcitabine (NSC613327), carboplatin (NSC241240), cisplatin (NSC119875), and SN-38 (NSC673596) were obtained from the National Cancer Institute (NCI) Developmental Therapeutics Program Chemical Repository (32). The FDA-approved anticancer drug set is available from the Developmental Therapeutics Program at https://dtp.cancer.gov/organization/dscb/obtaining/available plates.htm. […] The stock solutions were prepared in dimethyl sulfoxide (DMSO, Sigma-Aldrich, St. Louis, MO, cat. D2650), except for the platinum compounds which were prepared in saline (Quality Biological, Gaithersburg, MD, cat. 114-055-101), at 800-fold the tested concentration and stored at -70 degrees C prior to their use. All drugs and investigational agents were tested over a range starting from a high concentration at or near the clinical Cmax and decreasing in half-log increments. If the clinical Cmax for an agent had not been determined, the highest concentration tested was 10 microM (Table 1).
Cell Culture. All cells were maintained in an incubator at 37 degrees C and 5% CO2 with 95% humidity. The PDC lines were cultured according to standard operating procedures established by the NCI PDMR (https://pdmr.cancer.gov). Briefly, all PDCs were thawed and cultured in Matrigel-coated flasks prepared with a working solution of 1X Ham's F-12 nutrient mix, without supplementation (Invitrogen, Waltham, MA, cat. 11765054), 100 U/mL penicillin-streptomycin (Invitrogen, cat. 15140122), and 2.5% Matrigel (Corning Inc., Corning, NY, cat. 354248) for the first three passages. All PDCs were cultured in complete DMEM/F-12 media containing advanced DMEM/F-12 (Invitrogen, cat. 12634028), 4.9% defined fetal bovine serum, heat inactivated (HyClone Laboratories Inc., Logan, UT, cat. SH30070.03HI), 389 ng/mL hydrocortisone (Sigma-Aldrich, cat. H4001), 9.7 ng/mL human EGF recombinant protein (Invitrogen, cat. PHG0313), 23.4 microg/mL adenine (Sigma-Aldrich, cat. A2786), 97.3 U/mL penicillin-streptomycin (Invitrogen, cat. 15140122), 1.9 mM L-glutamine (Invitrogen, cat. 25030081), and 9.7 microM Y-27632 dihydrochloride (Tocris Bioscience, Bristol, United Kingdom, cat. 1254). The PDCs were cultured in complete DMEM/F12 media without 10 microM Y-27632 dihydrochloride for at least two passages prior to the screen. The established cell lines NCI-H1341 and […] were cultured in DMEM/F-12, HEPES (Invitrogen, cat. 11330032), 5% defined fetal bovine serum (HyClone Laboratories Inc., cat. SH30070.03), ITS premix universal culture supplement [insulin (5 microg/mL), transferrin (5 microg/mL), and selenious acid (5 ng/mL)] […]

Where [1] appears, read: curve of first compound, second compound 0.1 µM.
Where [2] appears, read: curve of first compound, second compound 0.316 µM.
The mark [3] stands for this setting: curve of first compound, second compound 1 µM.
The mark [4] stands for this setting: curve of first compound, second compound 3.16 µM.
Setting [5] is: curve of first compound, second compound 10 µM.
Setting [6] is: second compound 0.1 µM, first compound 0.0316 µM.
Setting [7] is: second compound 0.1 µM, first compound 0.1 µM.
Setting [8] is: second compound 0.1 µM, first compound 0.316 µM.
The mark [9] stands for this setting: second compound 0.1 µM, first compound 1 µM.
[10] abbreviates: second compound 0.316 µM, first compound 0.0316 µM.
[11] abbreviates: second compound 0.316 µM, first compound 0.1 µM.
[12] abbreviates: second compound 0.316 µM, first compound 0.316 µM.
[13] abbreviates: second compound 0.316 µM, first compound 1 µM.
Setting [14] is: second compound 1 µM, first compound 0.0316 µM.
The mark [15] stands for this setting: second compound 1 µM, first compound 0.1 µM.
[16] abbreviates: second compound 1 µM, first compound 0.316 µM.
Where [17] appears, read: second compound 1 µM, first compound 1 µM.
Setting [18] is: second compound 3.16 µM, first compound 0.0316 µM.
Where [19] appears, read: second compound 3.16 µM, first compound 0.1 µM.
Setting [20] is: second compound 3.16 µM, first compound 0.316 µM.
Setting [21] is: second compound 3.16 µM, first compound 1 µM.
Setting [22] is: second compound 10 µM, first compound 0.0316 µM.
Setting [23] is: second compound 10 µM, first compound 0.1 µM.
The mark [24] stands for this setting: second compound 10 µM, first compound 0.316 µM.
Where [25] appears, read: second compound 10 µM, first compound 1 µM.

Take `CC(C)c1c(-c2ccccc2)nc2c(C#N)c[nH]n2c1=O`: the viability, T/C reads like this: (compound 0.0316 µM) 103% and 106% and 97.8%; (compound 0.1 µM) 106% and 114% and 105%; (compound 0.316 µM) 102% and 101% and 106%; (compound 1 µM) 113% and 101% and 100%; (compound 3.16 µM) 102% and 116% and 98.1%; (compound 10 µM) 101% and 115% and 93.1%. The pIC50 (curve of compound) was < 5.00.
`CC(CO)NC(=O)c1cc(-c2ccc(Cl)cc2)nn(-c2cnn(C)c2)c1=O` (configuration not stated): the viability, T/C (compound 0.316 µM) was 116% [middle of 21 runs] and the viability, T/C (compound 1 µM) was 109% [middle of 20 runs]. For the setting “compound alone, run of 08/08/2022”, the pIC50 is < 5.00.
In the case of `CC1COCCN1c1cc(C2(S(C)(=N)=O)CC2)nc(-c2ccnc3[nH]ccc23)n1` (configuration not stated), the viability, T/C (compound 0.0316 µM) was 105% and 94.7% and 106%; the viability, T/C (compound 0.1 µM) is 108% and 91.7% and 112%; the viability, T/C (compound 0.316 µM) is 119% and 99.9% and 103%; the viability, T/C (compound 1 µM) was 105% and 89.6% and 108%; the viability, T/C (compound 3.16 µM) was 104% and 76.3% and 81.6%; the viability, T/C (compound 10 µM) is 60.3% and 48.3% and 55.5%. Where the note is “curve of compound”, the pIC50 was < 5.00 and 5.03.
In the case of `COc1ccc([C@@H](O)c2cc(-c3ncnc4cc(N5CCOCC5)ccc34)c(F)cc2Cl)nn1`, the viability, T/C (compound 0.0316 µM) was 98.8% and 109% and 95.3%; the viability, T/C (compound 0.1 µM) is 106% and 104% and 89.5%; the viability, T/C (compound 0.316 µM) is 90.8% and 87.6% and 99.6%; the viability, T/C (compound 1 µM) is 90.1% and 71.2% and 78.9%; the viability, T/C (compound 3.16 µM) is 57.8% and 44.8% and 53.4%; the viability, T/C (compound 10 µM) was 35.3% and 31.1% and 33.9%. Moreover, the pIC50 (curve of compound) was 5.32 and 5.58 and 5.44.
Consider `Cc1ccccc1N=Nc1ccc(NC(=O)c2ccnn2C)c(C)c1`, for which the viability, T/C was 101% [middle of 20 runs] (compound 0.1 µM), 102% [middle of 20 runs] (compound 1 µM) and 64.6% [middle of 20 runs] (compound 10 µM). The pIC50 (compound alone, run of 08/22/2022) was < 5.00.
In the case of `Cc1cncc(-c2nc(NCCc3c[nH]c4ccccc34)c3ncn(C(C)C)c3n2)c1`, the viability, T/C is 107% [middle of 20 runs] (compound 0.1 µM), 110% [middle of 20 runs] (compound 0.316 µM) and 6.41% [middle of 20 runs] (compound 10 µM). For the same compound, where the note is “compound alone, run of 08/16/2022”, the IC50 was 4.32 µM [middle of 24 runs].
For `COc1cccc2c1C(=O)c1c(O)c3c(c(O)c1C2=O)CC(O)(C(=O)CO)CC3OC1CC(N)C(O)C(C)O1` (configuration not stated) + CC(CO)NC(=O)c1cc(-c2ccc(Cl)cc2)nn(-c2cnn(C)c2)c1=O, the pIC50 runs as follows: under setting [1], 6.33; under setting [2], 6.30; under setting [3], 6.30; under setting [4], 6.40; under setting [5], 6.43. Further, the viability, T/C under setting [6] was 96.3%; the viability, T/C under setting [7] is 86.2%; the viability, T/C under setting [8] is 64.6%; the viability, T/C under setting [9] was 23.9%; the viability, T/C (second compound 0.1 µM, first compound 3.16 µM) is 3.62%; the viability, T/C (second compound 0.1 µM, first compound 10 µM) was 3.54%. Further, the viability, T/C reads like this: under setting [10], 78.7%; under setting [11], 84.3%; under setting [12], 66.8%; under setting [13], 24.1%; (second compound 0.316 µM, first compound 3.16 µM) 2.56%; (second compound 0.316 µM, first compound 10 µM) 2.88%. Moreover, the viability, T/C reads like this: under setting [14], 92%; under setting [15], 88.1%; under setting [16], 67.8%; under setting [17], 22.7%; (second compound 1 µM, first compound 3.16 µM) 3.26%; (second compound 1 µM, first compound 10 µM) 2.93%. Further, the viability, T/C runs as follows: under setting [18], 88.6%; under setting [19], 91%; under setting [20], 58.1%; under setting [21], 14.6%; (second compound 3.16 µM, first compound 3.16 µM) 2.55%; (second compound 3.16 µM, first compound 10 µM) 3.04%. In addition, the viability, T/C is 78.3% under setting [22]; 86.4% under setting [23]; 57.8% under setting [24]; 4.9% under setting [25]; 2.84% (second compound 10 µM, first compound 3.16 µM); 2.14% (second compound 10 µM, first compound 10 µM).
Regarding `Nc1ncn(C2CC(O)C(CO)O2)c(=O)n1` (configuration not stated) + CC(CO)NC(=O)c1cc(-c2ccc(Cl)cc2)nn(-c2cnn(C)c2)c1=O, the pIC50 is, setting by setting: under setting [1], < 6.00; under setting [2], < 6.00; under setting [3], < 6.00; under setting [4], < 6.00; under setting [5], < 6.00. Also, the viability, T/C by setting is: (second compound 0.1 µM, first compound 0.00316 µM) 109%; (second compound 0.1 µM, first compound 0.01 µM) 107%; under setting [6], 118%; under setting [7], 107%; under setting [8], 103%; under setting [9], 95.5%. Further, the viability, T/C is, setting by setting: (second compound 0.316 µM, first compound 0.00316 µM) 106%; (second compound 0.316 µM, first compound 0.01 µM) 114%; under setting [10], 110%; under setting [11], 114%; under setting [12], 120%; under setting [13], 109%. For the same compound, the viability, T/C runs as follows: (second compound 1 µM, first compound 0.00316 µM) 117%; (second compound 1 µM, first compound 0.01 µM) 108%; under setting [14], 103%; under setting [15], 102%; under setting [16], 107%; under setting [17], 96%. The viability, T/C reads like this: (second compound 3.16 µM, first compound 0.00316 µM) 109%; (second compound 3.16 µM, first compound 0.01 µM) 109%; under setting [18], 117%; under setting [19], 114%; under setting [20], 101%; under setting [21], 97%. The viability, T/C (second compound 10 µM, first compound 0.00316 µM) was 96.9%; the viability, T/C (second compound 10 µM, first compound 0.01 µM) was 100%; the viability, T/C under setting [22] is 105%; the viability, T/C under setting [23] was 99.6%; the viability, T/C under setting [24] is 92.9%; the viability, T/C under setting [25] is 100%.
